This passage reports Ki, EC50 and Emax results from patent publication US8957084B2, “7,8-cyclicmorphinan analogs” (Purdue Pharma L.P., priority 2012, dated 2015).

Test [1] addresses recombinant human kappa opioid receptor (κ) (Homo sapiens (Human), UniProt P41145). Nature of the test: κ-opioid receptor radioligand dose-displacement binding assay ([3H]-U69,593). The conditions noted are these: [3H]-U69,593 displacement. As to the method:
(§1) Membranes from HEK-293 cells, CHO or U-2 OS cells expressing the recombinant human kappa opioid receptor (κ) were prepared by lysing cells in ice cold hypotonic buffer (2.5 mM MgCl2, 50 mM HEPES, pH 7.4) (10 mL/10 cm dish) followed by homogenization with a tissue grinder/Teflon pestle. Membranes were collected by centrifugation at 30,000×g for 15 min at 4° C. and pellets were resuspended in hypotonic buffer to a final concentration of 1-3 mg/mL. Protein concentrations were determined using the BioRad protein assay reagent with bovine serum albumen as standard. Aliquots of κ receptor membranes were stored at −80° C.
Radioligand dose displacement assays used 0.4 nM [^3H]-U69,593 (GE Healthcare, Piscataway, N.J.; 40 Ci/mmole) with 15 μg membrane protein (recombinant κ opioid receptor expressed in HEK 293 cells; in-house prep) in a final volume of 200 μl binding buffer (5% DMSO, 50 mM Trizma base, pH 7.4). Non-specific binding was determined in the presence of 10 μM unlabeled naloxone or U69,593. All reactions were performed in 96-well polypropylene plates for 1 hour at a temperature of about 25° C. Binding reactions were terminated by rapid filtration onto 96-well Unifilter GF/C filter plates (Perkin Elmer, Shelton, Conn.) presoaked in 0.5% polyethylenimine (Sigma). Harvesting was performed using a 96-well tissue harvester (Perkin Elmer, Shelton, Conn.) followed by five filtration washes with 200 μl ice-cold binding buffer. Filter plates were subsequently dried at 50° C. for 1-2 hours. Fifty μl/well scintillation cocktail (Perkin Elmer, Shelton, Conn.) was added and plates were counted in a Packard Top-Count for 1 min/well.
(§2) In TABLE 1, binding affinity of certain Compounds of the Invention to the μ- and κ-opioid receptors was determined as described above.

The target in test [2] is T1, κ opioid receptor (Homo sapiens (Human), UniProt P41145). The test is described as follows: κ-opioid receptor [35S]GTPγS functional assay, HEK-293 cells. Format: biochemical. The conditions noted are these: for Emax: relative to U69,593. The protocol: as §1
(§3) Functional [^35S]GTPγS binding assays were conducted as follows. κ opioid receptor membrane solution was prepared by sequentially adding final concentrations of 0.026 μg/μl κ membrane protein (in-house), 10 μg/mL saponin, 3 μM GDP and 0.20 nM [^35S]GTPγS to binding buffer (100 mM NaCl, 10 mM MgCl2, 20 mM HEPES, pH 7.4) on ice. The prepared membrane solution (190 μl/well) was transferred to 96-shallow well polypropylene plates containing 10 μl of 20× concentrated stock solutions of agonist prepared in DMSO. Plates were incubated for 30 min at a temperature of about 25° C. with shaking. Reactions were terminated by rapid filtration onto 96-well Unifilter GF/B filter plates (Perkin Elmer, Shelton, Conn.) using a 96-well tissue harvester (Packard) and followed by three filtration washes with 200 μl ice-cold binding buffer (10 mM NaH2PO4, 10 mM Na2HPO4, pH 7.4). Filter plates were subsequently dried at 50° C. for 2-3 hours. Fifty μl/well scintillation cocktail (Perkin Elmer, Shelton, Conn.) was added and plates were counted in a Packard Top-Count for 1 min/well.
(§4) κ GTP EC50 is the concentration of a compound providing 50% of the maximal response for the compound at a κ receptor.
(§5) κ GTP Emax (%) is the maximal effect elicited by a compound relative to the effect elicited by U69,593.
(§6) In TABLE 2, activity response of certain Compounds of the Invention to the μ- and κ-opioid receptors was determined as described above for functional assays using HEK-293 cells.
(In general: GTPγS is a poorly hydrolysed GTP analogue; its binding reports G protein activation.)

Test [3] has as its target T2, μ-opioid receptor (Homo sapiens (Human), UniProt P35372). The test is described as follows: μ-opioid receptor [35S]GTPγS functional assay, U-2 OS cells. Format: biochemical. The conditions noted are these: for Emax: GTPγS, U-2 OS cells, relative to DAMGO. The protocol: (§7) [^35S]GTPγS functional assays were conducted using freshly thawed μ-receptor membranes prepared in-house from a cell line expressing recombinant μ opioid receptor in a HEK-293, CHO or U-2 OS cell background, or purchased from a commercial source (Perkin Elmer, Shelton, Conn.; or DiscovRx, Fremont, Calif.). Assay reactions were prepared by sequentially adding the following reagents to binding buffer (100 mM NaCl, 10 mM MgCl2, 20 mM HEPES, pH 7.4) on ice (final concentrations indicated): membrane protein (0.026 mg/mL), saponin ([…]), GDP ([…]) and [^35S]GTPγS (0.20 nM; Perkin Elmer, Shelton, Conn.). The prepared membrane solution (190 μl/well) was transferred to 96-shallow well polypropylene plates containing 10 μl of 20× concentrated stock solutions of the agonist [D-Ala^2, N-methyl-Phe^4 Gly-ol^5]-enkephalin (DAMGO) prepared in dimethyl sulfoxide (DMSO). Plates were incubated for 30 min at about 25° C. with shaking. Reactions were terminated by rapid filtration onto 96-well Unifilter GF/B filter plates (Perkin Elmer, Shelton, Conn.) using a 96-well tissue harvester (Perkin Elmer, Shelton, Conn.) followed by three filtration washes with 200 μl of ice-cold wash buffer (10 mM NaH2PO4, 10 mM Na2HPO4, pH 7.4). Filter plates were subsequently dried at 50° C. for 2-3 hours. BetaScint scintillation cocktail (Perkin Elmer, Shelton, Conn.) was added (50 μl/well) and plates were counted using a Packard Top-Count for 1 min/well. Data were analyzed using the sigmoidal dose-response curve fitting functions in GraphPad PRISM v. 3.0, or an in-house function for non-linear, sigmoidal dose-response curve-fitting.
(§8) μ GTP EC50 is the concentration of a compound providing 50% of the maximal response for the compound at a μ-opioid receptor.
(§9) μ GTP Emax (%) is the maximal effect elicited by a compound relative to the effect elicited by DAMGO, a standard μ agonist. Generally, the μ GTP Emax (%) value measures the efficacy of a compound to treat or prevent pain or other Conditions.
(§10) In TABLE 3, activity response of certain Compounds of the Invention to the μ- and κ-opioid receptors was determined as described above for functional assays using U-2 OS cells.

Test [4] has as its target T2, μ-opioid receptor. The test is described as follows: μ-opioid receptor [35S]GTPγS functional assay, HEK-293 cells. Format: biochemical. The conditions noted are these: for Emax: relative to DAMGO. As to the method:
as §7, §8, §9, §6

The target in test [5] is T1, κ opioid receptor. The test is described as follows: κ-opioid receptor [35S]GTPγS functional assay, U-2 OS cells. Format: biochemical. The conditions noted are these: for Emax: GTPγS, U-2 OS cells, relative to U69,593. As to the method:
as §1, §3, §4, §5, §10

In test [6] the target is T2, μ-opioid receptor. The test is described as follows: μ-opioid receptor radioligand dose-displacement binding assay ([3H]-diprenorphine). The conditions noted are these: [3H]-diprenorphine displacement. As to the method:
Radioligand dose-displacement binding assays for μ-opioid receptors used 0.3 nM [^3H]-diprenorphine (Perkin Elmer, Shelton, Conn.), with […] membrane protein/well in a final volume of 500 μl binding buffer (10 mM MgCl2, 1 mM EDTA, 5% DMSO, 50 mM HEPES, pH 7.4). Reactions were carried out in the absence or presence of increasing concentrations of unlabeled naloxone. All reactions were conducted in 96-deep well polypropylene plates for 2 hours at room temperature. Binding reactions were terminated by rapid filtration onto 96-well Unifilter GF/C filter plates (Perkin Elmer, Shelton, Conn.), presoaked in 0.5% polyethylenimine using a 96-well tissue harvester (Perkin Elmer, Shelton, Conn.) followed by performing three filtration washes with 500 μl of ice-cold binding buffer. Filter plates were subsequently dried at 50° C. for 2-3 hours. BetaScint scintillation cocktail (Perkin Elmer, Shelton, Conn.) was added (50 μl/well), and plates were counted using a Packard Top-Count for 1 min/well. The data were analyzed using the one-site competition curve fitting functions in GraphPad PRISM™ v. 3.0 or higher (San Diego, Calif.), or an in-house function for one-site competition curve-fitting.
as §2

As usually defined, the Ki is the dissociation constant of the complex between target and ligand, obtained from inhibition or displacement. The EC50 is the midpoint of the concentration-response curve. Usually Emax stands for the size of the effect at its maximum, as opposed to the concentration needed. As to `C=C1C[C@@]23CCN(CC4CC4)[C@H](Cc4ccc(OC)cc42)C3C2CC12` (stereo partly drawn) [Compound 4, (2R,7bS)-12-(cyclopropylmethyl)-6-methoxy-9-methylene-1,1a,1b,2,3,8,9,9a-octahydro-2,7b-(epiminoethano)cyclopropa[a]phenanthrene], the Ki in test [1] amounted to 2.19 ± 0.6 nM; at μ-opioid receptor [6], 142 ± 10.8 nM. For the same compound, the concentration for a half-maximal effect (EC50) was found to be 103 ± 36.9 nM on κ opioid receptor [2], 83.1 ± 7.77 nM at μ-opioid receptor [3], 42.2 ± 3.59 nM at μ-opioid receptor [4] and 8.95 ± 1.02 nM at κ opioid receptor [5]. In addition, the Emax was 106 ± 1.67% at κ opioid receptor [2] (GTPγS, HEK-293 cells); 66.7 ± 4.81% on μ-opioid receptor [3]; 113 ± 3.38% on μ-opioid receptor [4] (GTPγS, HEK-293 cells); 102 ± 1.53% on κ opioid receptor [5].

As to `COc1ccc2c(c1)[C@]13CCN(CC4CC4)[C@H](C2)[C@@H]1C1CC1C(O)C3` (stereo partly drawn) [Compound 2, (1bR,2R,7bS)-12-(cyclopropylmethyl)-6-methoxy-1,1a,1b,2,3,8,9,9a-octahydro-2,7b-(epiminoethano)cyclopropa[a]phenanthren-9-ol], the Ki in test [1] came to 23.3 ± 6.06 nM. The EC50 was found to be 1120 ± 230 nM on κ opioid receptor [2] and 414 ± 73 nM at μ-opioid receptor [4]. For the same compound, the Emax came out at 76.7 ± 3.18% on κ opioid receptor [2] (GTPγS, HEK-293 cells) and 54.3 ± 4.67% at μ-opioid receptor [4] (GTPγS, HEK-293 cells).

`COc1ccc2c(c1)[C@]13CCN(CC4CC4)[C@H](C2)[C@@H]1[C@H]1C2CCC(CC2)[C@H]1C(=O)C3` [Compound 5, (4aR,4bR,5R,10bS,12aR)-15-(cyclopropylmethyl)-9-methoxy-2,3,4,4a,5,6,11,12a-octahydro-1H-5,10b-(epiminoethano)-1,4-ethanochrysen-12(4bH)-one]: the Ki is 126 ± 21.9 nM in test [1] and 242 ± 46 nM on μ-opioid receptor [6]. Further, the EC50 on κ opioid receptor [2] (GTPγS, HEK-293 cells, read-out: κ EC50) was 1370 ± 419 nM; at μ-opioid receptor [4] (GTPγS, HEK-293 cells, read-out: μ EC50), 216 ± 16.6 nM. The Emax was determined as 19.3 ± 0.88% at κ opioid receptor [2] (GTPγS, HEK-293 cells) and 33 ± 4.71% on μ-opioid receptor [4] (GTPγS, HEK-293 cells).

`C=CCOC1C[C@]23CCN(CC4CC4)[C@H](Cc4ccc(OC)cc42)C3C2CC12` (stereo partly drawn) [Compound 3, (2R,7bS)-9-(allyloxy)-12-(cyclopropylmethyl)-6-methoxy-1,1a,1b,2,3,8,9,9a-octahydro-2,7b-(epiminoethano)cyclopropa[a]phenanthrene]: the figures for the Ki (in test [1]; on μ-opioid receptor [6]) were 3.04 ± 0.6 nM and 30 ± 2.76 nM, respectively. The EC50 at κ opioid receptor [2] is 116 ± 27.4 nM; on μ-opioid receptor [3], 90.7 ± 17 nM; on μ-opioid receptor [4], 75.2 ± 9.24 nM; on κ opioid receptor [5], 29.5 ± 4.5 nM. The Emax on κ opioid receptor [2] (GTPγS, HEK-293 cells) amounted to 66.7 ± 7.88%; on μ-opioid receptor [3], 52.7 ± 7.54%; at μ-opioid receptor [4] (GTPγS, HEK-293 cells), 84.3 ± 5.81%; on κ opioid receptor [5] it was 105 ± 4.67%.

In the case of `COc1ccc2c(c1)[C@]13CCN(CC4CC4)[C@H](C2)[C@@H]1C1CC1C(=O)C3` (stereo partly drawn) [Compound 1, (1bR,2R,7bS)-12-(cyclopropylmethyl)-6-methoxy-1,1b,2,3,8,9a-hexahydro-2,7b-(epiminoethano)cyclopropa[a]phenanthren-9(1aH)-one], the results for the Ki (in test [1]; on μ-opioid receptor [6]) were 8.87 ± 2.73 nM and 112 ± 26.9 nM, respectively. Besides, the results for the EC50 on κ opioid receptor [2] and at μ-opioid receptor [4] were 136 ± 25.4 nM and 53.6 ± 8.94 nM, respectively. Moreover, the Emax stood at 81 ± 2.27% at κ opioid receptor [2] (GTPγS, HEK-293 cells) and 63.6 ± 3.47% on μ-opioid receptor [4] (GTPγS, HEK-293 cells).
